Measurements taken from patent US10780092B2, “Fused pyrazine derivatives useful as soluble guanylate cyclase stimulators” (Merck Sharp & Dohme Corp., priority 2016, dated 2020).

Legend:
sGC α1/β1 heterodimer = sGC α1/β1 heterodimer (Homo sapiens (Human), UniProt Q02108+Q02153); assay: Cell-based sGC functional assay (CASA assay), cGMP by HTRF; details: CHO-K1/sGC cells; for Emax: CHO-K1, cGMP production as percentage of maximum of compound A (set to 100%), read-out: % Activation; for EC50: inflection point of cGMP production, 4P fit, read-out: IP
Excerpt: Cell-Based sGC Functional Assay (Cyclic GMP Assay for sGC Activator: CASA Assay)
Soluble guanylate cyclase (sGC) is a heme-containing enzyme that converts GTP to secondary messenger cGMP. Increases in cGMP levels affect several physiological processes including vasorelaxation through multiple downstream pathways. […] Heme-dependent activators (HDAs) preferentially target sGC containing a ferrous heme group. To determine the effect of sGC activators on enzyme activity, the CASA assay was developed to monitor the generation of cGMP in a cell line that stably expresses the heterodimeric sGC protein.
A CHO-K1 cell line stably expressing the sGC α1/β1 heterodimer was generated using a standard transfection protocol. The cDNA's encoding human sGC α1 and β1 were cloned in pIRES hyg and pIRES neo respectively using standard molecular biology techniques. The plasmids pIRES hyg and pIRES neo plasmids were obtained from Clontech. CHO-K1 cells were transfected with plasmids pIREShyg-hsGCα1 and pIRESneo-hsGCβ1 simultaneously using FUGENE reagent. Clones that stably express both subunits were selected with hygromycin and neomycin for ˜2 weeks. The clone chosen for the assay was designated CHO-K1/sGC. CHO-K1/sGC cells were maintained in F-K12 medium containing 10% heat-inactivated Fetal Bovine Serum (FBS), 100 μg/mL penicillin/streptomycin, 0.5 mg/mL hygromycin and 0.25 mg/mL G418. The cells were then cryopreserved in liquid nitrogen. On the day of the assay, the cells were thawed and resuspended in EBSS Assay Buffer (Sigma, E3024) supplemented with 5 mM MgCl2, 10 mM HEPES (4-(2-hydroxyethyl)piperazine-1-ethanesulfonic acid) and 0.05% BSA (bovine serum albumin) and cell density was then adjusted to 2.25×10^5/mL with EAB. IBMX (3-isobutyl-1-methylxanthin, 0.5 mM) was added to inhibit degradation of cGMP. Compounds were diluted from DMSO stock solutions and added to the assay at a final DMSO concentration of 2.5%. Cells were pre-incubated in the presence and absence of 1 μM of Diethylenetriamine/nitric oxide adduct (DETA-NO; Sigma, 17018) for 30 min at 25° C. Compounds were subsequently added and incubated for 1 hr at 37° C. At the end of the incubation period, the reaction was terminated and the cells were lysed with the detection reagents from Cisbio Kits. The level of intracellular cGMP was determined using an HTRF-based assay kit (CisBio, 62GM2PEC), which detects the displacement of a fluorescence labeled cGMP from its specific antibody. The cGMP produced by test compounds was directly compared to the maximum cGMP production (this value was set to equal 100% activation) of the published sGC compound A (Example 1 in WO 2010/065275, published Jun. 10, 2010).
The test compounds' activities were then expressed as a percentage of compound A, the standard in every experiment. This percent activation was calculated either in the presence or absence of DETA-NO which was then plotted. Inflection points (IP) and maximum fold induction was derived using Abase analysis software for 4P fit.

[1] = target: human recombinant sGC enzyme (Homo sapiens (Human), UniProt Q02108+Q02153); assay: SEC competition binding assay with [3H] Compound B radioligand; details: displacement of 1.6 nM [3H] Compound B, 24 h at 37° C.
Method: The binding potencies of sGC compounds to the human recombinant sGC enzyme were determined in a Size Exclusion Chromatography (SEC) competition binding assay using [^3H] Compound B as the radioligand. [^3H] Compound B was prepared using a standardardized tritium exchange procedure. The parent (non-labeled) molecule was first iodinated then a Pd-catalyzed iodine to tritium exchange provided the labeled compound.
Method: The binding buffer was composed of 50 mM triethanolamine pH 7.4, 3 mM MgCl2, 0.025% BSA, 2 mM dithiothreitol (DTT), 300 μM DETA/NO and 400 μM GTP. Assays were conducted in 96-well plates in a total volume of 200 μL. Recombinant human sGC protein (40 ng) was incubated with 1.6 nM [^3H] Compound B for 24 h at 37° C. in the presence and absence of various concentrations of sGC testing compounds delivered as DMSO solutions to give a total of 1% organic solvent content. Non-specific binding was defined by competition with 1 μM of Compound B. After the incubation period, the binding mixtures were loaded onto the gel-filtration plate (ThermoFischer Cat. No. 89808) pre-equilibrated with binding buffer and spun at 1000×g for 3 min at 4° C. on a Bench top centrifuge. The collected eluates in White Frame Clear Well Isoplates (Perkin Elmer Cat #6005040) received 100 μl of UltimaGold scintillation cocktail. The sealed plates were shaken vigorously and span, and counted after 6 hs with a Wallac Microbeta TriLux 1450 LSC & Luminescence Counter (Perkin Elmer). Data from competition experiments were analyzed to determine Ki values using one site—fit Ki equation.

SMILES	Emax (sGC α1/β1 heterodimer) [%]	EC50 (sGC α1/β1 heterodimer) [nM]	Ki [1] [nM]
CC1(c2cc(O)c(C#N)c(F)c2)C(=O)Nc2nc(-c3cn4ncnc4c(Cc4cc(F)cc(F)c4)n3)nc(N)c21 (stereo not drawn) [Example 27-B, 4-(4-Amino-2-{8-[(3,5-difluorophenyl)methyl]-[1,2,4]triazolo[1,5-a]pyrazin-6-yl}-5-methyl-6-oxo-6,7-dihydro-5H-pyrrolo[2,3-d]pyrimidin-5-yl)-2-fluoro-6-hydroxybenzonitrile]	94	489	0.28
CC(C)CCc1nc(-c2nc(N)c3c(n2)NC(=O)C3(C)c2cc(O)c(Cl)cn2)cn2ccnc12 (stereo not drawn) [Example 57-B, 4-Amino-5-(5-chloro-4-hydroxypyridin-2-yl)-2-(8-isopentylimidazo[1,2-a]pyrazin-6-yl)-5-methyl-5,7-dihydro-6H-pyrrolo[2,3-d]pyrimidin-6-one]	67	798	1.24
CC1(c2ccc(Cl)c(O)c2)C(=O)Nc2nc(-c3cn4ncnc4c(CCC(F)(F)C(F)(F)F)n3)nc(NCC(O)C(F)(F)F)c21 (single isomer, unassigned) [Example 133-AA, 5-(4-Chloro-3-hydroxy-phenyl)-5-methyl-2-(8-(3,3,4,4,4-pentafluoro-butyl)-[1,2,4]triazolo-[1,5-a]pyrazin-6-yl)-4-[(3,3,3-trifluoro-2-hydroxypropyl)amino]-5,7-dihydro-6H-pyrrolo-[2,3-d]pyrimidin-6-one]	38	1290	2.34
CC1(c2cc(O)c(C#N)c(Cl)c2)C(=O)Nc2nc(-c3cn4ncnc4c(CC4CCCCC4)n3)nc(N)c21 (stereo not drawn) [Example 150-A, 4-(4-amino-2-{8-(cyclohexylmethyl)-[1,2,4]triazolo[1,5-a]-pyrazin-6-yl}-5-methyl-6-oxo-6,7-dihydro-5H-pyrrolo-[2,3-d]pyrimidin-5-yl)-2-chloro-6-hydroxy-benzonitrile]	96	4120	0.989
CC1(c2cc(O)c(Cl)cn2)C(=O)Nc2nc(-c3cn4ncnc4c(Cc4ccccc4F)n3)nc(N)c21 (stereo not drawn) [Example 148-B, 4-amino-5-(5-chloro-4-hydroxypyridin-2-yl)-2-{8-(2-fluorobenzyl)-[1,2,4]triazolo[1,5-a]-pyrazin-6-yl}-5-methyl-5,7-dihydro-6H-pyrrolo-[2,3-c]pyrimidin-6-one]	105	242	0.261
CCCCc1nc(-c2nc(N)c3c(n2)NC(=O)C3(C)c2ccc(Cl)c(O)c2)cn2ncnc12 (stereo not drawn) [Example 50-A, 4-Amino-2-(8-butyl-[1,2,4]triazolo[1,5-a]pyrazin-6-yl)-5-(4-chloro-3-hydroxyphenyl)-5-methyl-5,7-dihydro-6H-pyrrolo[2,3-d]pyrimidin-6-one]	175	70	0.775
CC1(c2ccc(Cl)c(O)c2Cl)C(=O)Nc2nc(-c3cn4ncnc4c(CC4CCCCC4)n3)nc(N)c21 (stereo not drawn) [Example 67-A, 4-Amino-2-(8-(cyclohexylmethyl)-[1,2,4]triazolo[1,5-a]pyrazin-6-yl)-5-(2,4-dichloro-3-hydroxyphenyl)-5-methyl-5,7-dihydro-6H-pyrrolo[2,3-d]pyrimidin-6-one]	134	728	2.65
CCCCc1nc(-c2nc(N)c3c(n2)NC(=O)C3(C)c2ccc(O)c(Cl)c2)cn2ncnc12 (stereo not drawn) [Example 74-B, 4-Amino-2-(8-butyl-[1,2,4]triazolo[1,5-a]pyrazin-6-yl)-5-(3-chloro-4-hydroxyphenyl)-5-methyl-5,7-dihydro-6H-pyrrolo[2,3-d]pyrimidin-6-one]	122	131	6.17
CC1(c2cc(O)ccn2)C(=O)Nc2nc(-c3cn4ncnc4c(Cc4cccc(F)c4)n3)nc(N)c21 (stereo not drawn) [Example 110-B, 4-Amino-2-{8-[(3-fluorophenyl)methyl]-[1,2,4]triazolo[1,5-a]-pyrazin-6-yl}-5-(4-hydroxypyridin-2-yl)-5-methyl-5,7-dihydro-6H-pyrrolo[2,3-d]pyrimidin-6-one]	159	437	1.62
CC1CCC(Cc2nc(-c3nc(N)c4c(n3)NC(=O)C4(C)c3ccc(O)c(Cl)c3)cn3ccnc23)CC1 (single isomer, unassigned) [Example 120-BA, 4-Amino-5-(3-chloro-4-hydroxyphenyl)-5-methyl-2-{8-[(4-methyl-cyclohexyl)methyl]-imidazo[1,2-a]pyrazin-6-yl}-5,7-dihydro-6H-pyrrolo[2,3-d]pyrimidin-6-one]	133	85	10.9

Now from value to compound:

Emax (sGC α1/β1 heterodimer) [%]	EC50 (sGC α1/β1 heterodimer) [nM]	Ki [1] [nM]	SMILES
121	600	2.2	CC1(c2ccc(Cl)c(O)c2)C(=O)Nc2nc(-c3cn4ccnc4c(CCC4CCCCC4)n3)nc(N)c21 (stereo not drawn) [Example 63-A, 4-Amino-5-(4-chloro-3-hydroxyphenyl)-2-(8-(2-cyclohexylethyl)imidazo[1,2-a]pyrazin-6-yl)-5-methyl-5,7-dihydro-6H-pyrrolo[2,3-d]pyrimidin-6-one]
137	95	6.37	CC1(c2ccc(O)c(F)c2)C(=O)Nc2nc(-c3cn4ncnc4c(CCC(F)(F)C(F)(F)F)n3)nc(N)c21 (racemic) [Example 116-B, 4-Amino-5-(3-fluoro-4-hydroxyphenyl)-5-methyl-2-(8-(3,3,4,4,4-pentafluorobutyl)-[1,2,4]triazolo[1,5-a]pyrazin-6-yl)-5,7-dihydro-6H-pyrrolo-[2,3-d]pyrimidin-6-one]
91	2440	0.416	CC1(c2cc(O)c(C(F)(F)F)cn2)C(=O)Nc2nc(-c3cn4ccnc4c(Cc4cccc(F)c4)n3)nc(N)c21 (stereo not drawn) [Example 145-B, 4-amino-2-(8-{3-fluorobenzyl}imidazo-[1,2-a]pyrazin-6-yl)-5-(4-hydroxy-5-(trifluoromethyl)pyridin-2-yl)-5-methyl-5,7-dihydro-6H-pyrrolo-[2,3-d]pyrimidin-6-one]
108	96	9.41	CC1(c2cccc(O)c2)C(=O)Nc2nc(-c3cn4ccnc4c(CCC(F)(F)C(F)(F)F)n3)nc(N)c21 (stereo not drawn) [Example 79-B, 4-Amino-5-(3-hydroxyphenyl)-5-methyl-2-(8-(3,3,4,4,4-pentafluorobutyl)imidazo[1,2-a]pyrazin-6-yl)-5,7-dihydro-6H-pyrrolo[2,3-d]pyrimidin-6-one]
110	547	7.89	CCCCc1nc(-c2nc(N)c3c(n2)NC(=O)C3(C)c2ccc(C(F)(F)F)c(O)c2)cn2ccnc12 (stereo not drawn) [Example 76-B, 4-Amino-2-(8-butylimidazo[1,2-a]pyrazin-6-yl)-5-(3-hydroxy-4-(trifluoromethyl)phenyl)-5-methyl-5,7-dihydro-6H-pyrrolo[2,3-d]pyrimidin-6-one]
